# What was measured:
# EGFR WT = target: T1, EGFR WT (Homo sapiens, UniProt P00533); experiment: Enzymatic assay EGFR WT (method c); assay type: biochemical; conditions: [EGFR WT]=2 nM, [ATP]=1 mM, [Peptide 22]=1 μM
# T1 construct: purchased Thermo Fisher, Carlsbad, CA ERBB1 PR7295B
# Procedure: (§1) A 2× stock solution of HER2 WT (ERBB2 0108-0000-1; ProQinase, Freiburg, Germany) corresponding to method a, was prepared as described below. Alternatively, a 2× stock solution of HER2YVMA (custom purification; Viva biotech, Shanghai, China) corresponding to method b, was prepared as described below. For method c, a 2× stock of EGFR (ERBB1 PR7295B, Thermo Fisher, Carlsbad, CA) was prepared as described below. All 2× solutions were prepared in buffer containing 50 mM HEPES, pH 7.5, 10 mM MnCl2, MgCl2, 0.005% Tween 20, 1 mM TCEP. 25 ul of 2× enzyme solution was added to a Seahorse low volume 384-well polypropylene assay plate (201288-100, Seahorse Bioscience, Chicopee, MA) containing 1 μl of compound serially diluted in 50% DMSO. To initiate the reaction, 25 μl of solution containing 2× final concentration of ATP and ProfilerPro Peptide 22 (760366, Perkin Elmer Hopkinton, MA) was added to each well. The reactions were separated on an LC3000 (Caliper Life Sciences) or a LabChip EZReader (Perkin Elmer) in kinetic mode.
# (§2) At the conclusion of each assay, the data were exported from the instrument as a .rda file (LC3000) and processed in proprietary software, EZReviewer, which determines the percent of substrate converted to product within a given cycle as (P/P+S)*100 by measuring the amplitude of substrate and product peaks. Cycle time varied with amount of compounds tested between 8 and 12 cycles. Initial velocity (0-3600 s) from each reaction was determined from the slope of a plot of percent conversion at each cycle versus time (seconds). Percent inhibition was determined by dividing the slope of each reaction by the uninhibited control using 100*(1-(x/uninhibited control)). IC50 estimates were obtained by plotting the concentration of inhibitor versus percent inhibition in GraphPad Prism (GraphPad Software, San Diego, CA) using log[inhibitor] versus Response (Variable Slope Model); Y=Min+((Max-Min)/(1+((IC50/x)^Hillslope)))
# (§3) • a) [HER2 WT]=12.5 nM, [ATP]=25 μM, [Peptide 22]=1 μM (ATP KMapp˜25 μM) • b) [HER2YVMA]=5 nM, [ATP]=25 μM, [Peptide 22]=1 μM (ATP KMapp˜15 μM) • c) [EGFR WT]=2 nM, [ATP]=1 mM, [Peptide 22]=1 μM (ATP KMapp˜25 μM)
# EGFR = EGFR (Homo sapiens, UniProt P00533); experiment: EGFR signaling (pEGFR Tyr1068/total EGFR MSD) in A431 cells; assay type: cell-based; parameters: endogenous in cells; host or cells: A431, N87; conditions: for EC50: A431 cells, read-out: A431 pEGFR EC50; for Selectivity A431 EC50/BT474 EC50: ratio A431 pEGFR EC50 to BT474 pHER2 EC50; for Selectivity A431 EC50/HEKYVMA EC50: ratio A431 pEGFR EC50 to HEK YVMA pHER2 EC50
# EGFR, sequence (P00533 25-1210): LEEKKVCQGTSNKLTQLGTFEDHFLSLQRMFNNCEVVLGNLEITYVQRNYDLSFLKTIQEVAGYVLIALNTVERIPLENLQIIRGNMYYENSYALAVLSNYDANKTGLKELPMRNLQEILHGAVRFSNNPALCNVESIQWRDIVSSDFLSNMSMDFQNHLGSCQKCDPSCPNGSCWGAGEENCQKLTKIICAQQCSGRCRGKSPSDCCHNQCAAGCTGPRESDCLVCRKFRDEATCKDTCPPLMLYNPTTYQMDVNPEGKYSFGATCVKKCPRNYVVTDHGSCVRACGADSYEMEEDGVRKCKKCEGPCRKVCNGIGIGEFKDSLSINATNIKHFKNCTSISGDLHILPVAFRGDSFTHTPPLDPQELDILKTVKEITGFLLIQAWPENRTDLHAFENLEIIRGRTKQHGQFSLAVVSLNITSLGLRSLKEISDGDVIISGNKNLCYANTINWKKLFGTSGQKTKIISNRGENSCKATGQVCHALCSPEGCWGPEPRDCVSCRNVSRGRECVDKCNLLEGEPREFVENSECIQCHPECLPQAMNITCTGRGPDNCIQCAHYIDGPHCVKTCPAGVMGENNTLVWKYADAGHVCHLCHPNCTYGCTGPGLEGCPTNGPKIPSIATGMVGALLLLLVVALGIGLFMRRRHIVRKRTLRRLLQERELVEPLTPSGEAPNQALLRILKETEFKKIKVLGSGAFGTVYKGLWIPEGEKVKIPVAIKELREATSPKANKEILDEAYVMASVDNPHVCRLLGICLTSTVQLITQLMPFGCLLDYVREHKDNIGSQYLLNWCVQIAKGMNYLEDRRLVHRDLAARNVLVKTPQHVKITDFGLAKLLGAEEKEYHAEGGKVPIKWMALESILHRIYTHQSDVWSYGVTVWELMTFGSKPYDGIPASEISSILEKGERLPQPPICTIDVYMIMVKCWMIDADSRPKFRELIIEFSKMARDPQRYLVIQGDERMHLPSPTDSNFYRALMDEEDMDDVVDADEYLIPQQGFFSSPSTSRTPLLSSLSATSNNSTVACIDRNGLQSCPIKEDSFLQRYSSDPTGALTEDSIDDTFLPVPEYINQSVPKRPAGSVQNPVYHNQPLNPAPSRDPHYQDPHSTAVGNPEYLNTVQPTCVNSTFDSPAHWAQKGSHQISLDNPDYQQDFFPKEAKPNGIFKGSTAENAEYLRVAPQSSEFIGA
# Procedure: In addition to the engineered cell lines, the following cell lines were used: BT474 (human breast carcinoma), N87 (human gastric carcinoma), NCI-H1781 (human lung adenocarcinoma), and A431 (human epidermoid carcinoma); all cell lines were obtained from the American Type Culture Collection (ATCC, Manassas, VA). NCI-H1781 were grown in complete RPMI 1640 (Life Technologies, Carlsbad, CA) supplemented with 15% fetal bovine serum (FBS, Life Technologies, Carlsbad, CA) and 1% Penicillin-Streptomycin (P/S, Life Technologies, Carlsbad, CA). N87 cells were grown in complete RPMI 1640 supplemented with 10% FBS and 1% P/S. BT474 and A431 cells were grown in DMEM (Life Technologies, Carlsbad, CA) supplemented with 10% FBS and 1% P/S. All cells were maintained and propagated in a humidified 5% CO2 incubator at 37° C.
# A431 Cells were plated in 96-well tissue-culture treated plates in full media for 6 h, then starved with media containing 0.1% FBS for overnight. Media was replaced with low serum media (1% FBS) containing compound at 10, 3.3, 1.1, 0.37, 0.12, 0.041, 0.014, 0.005 μM or DMSO control (0.1%). Cells were incubated for 1.5 hr, then stimulated with 100 ng/mL human EGF (PeproTech, Rocky Hill, NJ) for 10 minutes. Cells were washed with cold PBS, and lysed for 30 min on ice in complete MSD lysis buffer (prepared as described in HER2 Signaling Method); lysates were stored at −70° C. until further analysis. EGFR signaling was evaluated using phospho (Tyr 1068)/total EGFR whole cell lysate kit (Meso-Scale Discovery, Gaithersburg, MD). The phospho EGFR signal was normalized to total EGFR for each sample; results are reported as % DMSO control. The normalized data was fitted using a sigmoidal curve analysis program (Graph Pad Prism version 6) with variable Hill slope to determine EC50 values. The results are provided in Table 4, under column titled “A431-pEGFR EC50”.
# HER2YVMA = HER2YVMA (Homo sapiens, UniProt P04626, INS775YVMA); experiment: Enzymatic assay HER2YVMA (method b); assay type: biochemical; parameters: purchased Viva biotech, Shanghai, China custom purification; conditions: [HER2YVMA]=5 nM, [ATP]=25 μM, [Peptide 22]=1 μM
# HER2YVMA, sequence (P04626 with tags, fused parts or gaps INS775YVMA): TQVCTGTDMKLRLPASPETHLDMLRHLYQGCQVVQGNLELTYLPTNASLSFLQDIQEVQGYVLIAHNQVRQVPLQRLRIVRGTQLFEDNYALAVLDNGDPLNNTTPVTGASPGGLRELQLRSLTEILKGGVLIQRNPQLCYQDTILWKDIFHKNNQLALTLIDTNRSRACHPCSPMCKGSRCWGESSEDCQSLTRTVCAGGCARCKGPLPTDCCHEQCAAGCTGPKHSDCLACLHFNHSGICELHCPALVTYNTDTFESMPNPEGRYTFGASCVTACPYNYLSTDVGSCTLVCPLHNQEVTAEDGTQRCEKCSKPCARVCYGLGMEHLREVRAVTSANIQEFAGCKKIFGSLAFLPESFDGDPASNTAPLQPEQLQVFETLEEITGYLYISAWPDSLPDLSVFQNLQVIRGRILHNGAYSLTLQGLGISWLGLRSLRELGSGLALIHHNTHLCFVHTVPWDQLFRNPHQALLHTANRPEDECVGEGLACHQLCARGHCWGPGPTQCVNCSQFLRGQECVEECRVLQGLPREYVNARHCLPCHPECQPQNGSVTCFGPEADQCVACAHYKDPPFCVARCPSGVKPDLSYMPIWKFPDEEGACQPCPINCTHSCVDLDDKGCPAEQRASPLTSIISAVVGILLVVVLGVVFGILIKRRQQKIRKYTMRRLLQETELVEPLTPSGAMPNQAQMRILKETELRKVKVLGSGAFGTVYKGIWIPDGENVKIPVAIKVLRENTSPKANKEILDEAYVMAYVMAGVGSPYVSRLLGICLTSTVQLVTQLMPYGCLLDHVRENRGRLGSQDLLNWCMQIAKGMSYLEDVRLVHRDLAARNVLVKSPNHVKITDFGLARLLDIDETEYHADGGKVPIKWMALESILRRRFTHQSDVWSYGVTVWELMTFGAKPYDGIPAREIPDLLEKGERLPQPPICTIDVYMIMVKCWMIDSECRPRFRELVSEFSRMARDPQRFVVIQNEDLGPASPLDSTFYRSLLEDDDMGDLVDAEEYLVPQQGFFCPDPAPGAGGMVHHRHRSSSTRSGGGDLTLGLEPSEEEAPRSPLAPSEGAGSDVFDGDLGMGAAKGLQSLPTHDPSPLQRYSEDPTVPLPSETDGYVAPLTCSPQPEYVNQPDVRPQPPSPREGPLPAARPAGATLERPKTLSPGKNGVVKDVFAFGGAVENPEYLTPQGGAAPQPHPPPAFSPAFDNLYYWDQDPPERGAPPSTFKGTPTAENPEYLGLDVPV
# Procedure: as §1, §2, §3
# T1 sequence (P00533 25-1210): as the sequence (P00533 25-1210) above
structure (smiles),measurement,setting,value
"Cc1ccc(Oc2ccc(Nc3ncnc4sc5c(c34)C(C)CN(C(=O)C=CCN(C)C(C)(C)C)C5)cc2C)cn1 (single isomer, unassigned) [Compound 178]",IC50,EGFR WT,> 10000 nM
same,EC50,EGFR,100 to 1000 nM
same,Selectivity A431 EC50/BT474 EC50,EGFR,D (D: ≥ 5 and < 10)
same,Selectivity A431 EC50/HEKYVMA EC50,EGFR,E (E: >1 and < 5)
same,IC50,HER2YVMA,100 to 1000 nM
"Cc1ccc(Oc2ccc(Nc3ncnc4sc5c(c34)C(C)CN(C(=O)C=CCN(C)C(C)(C)C)C5)cc2C)cn1 (single isomer, unassigned) [Compound 179]",IC50,EGFR WT,> 10000 nM
same,EC50,EGFR,< 100 nM
same,Selectivity A431 EC50/BT474 EC50,EGFR,B (B: ≥ 20 and < 100)
same,Selectivity A431 EC50/HEKYVMA EC50,EGFR,E (E: >1 and < 5)
same,IC50,HER2YVMA,< 100 nM
"C=CC(=O)N1CCc2c(sc3ncnc(Nc4ccc(Oc5cccnc5)c(Cl)c4)c23)C1 [Compound 6, 1-(4-((3-chloro-4-(pyridin-3-yloxy)phenyl)amino)-5,8-dihydropyrido[4′,3′:4,5]thieno[2,3-d]pyrimidin-7(6H)-yl)prop-2-en-1-one]",IC50,EGFR WT,> 10000 nM
same,EC50,EGFR,< 100 nM
same,Selectivity A431 EC50/BT474 EC50,EGFR,E (E: >1 and < 5)
same,Selectivity A431 EC50/HEKYVMA EC50,EGFR,E (E: >1 and < 5)
same,IC50,HER2YVMA,< 100 nM
"COc1cc(Nc2ncnc3sc4c(c23)CCN(C(=O)/C=C/CN(C)C)C4)ccc1Oc1ccccc1 [Compound 7, (E)-4-(dimethylamino)-1-(4-((3-methoxy-4-phenoxyphenyl)amino)-5,8-dihydropyrido[4′,3′:4,5]thieno[2,3-d]pyrimidin-7(6H)-yl)but-2-en-1-one]",IC50,EGFR WT,> 10000 nM
same,EC50,EGFR,< 100 nM
same,Selectivity A431 EC50/BT474 EC50,EGFR,D (D: ≥ 5 and < 10)
same,Selectivity A431 EC50/HEKYVMA EC50,EGFR,F (F: < 1)
same,IC50,HER2YVMA,< 100 nM
"Cc1ccc(Oc2ccc(Nc3ncnc4sc5c(c34)CCN(C(=O)/C=C/CN(C)C)C5)cc2C)cn1 [Compound 8, (E)-4-(Dimethylamino)-1-(4-((3-methyl-4-((6-methylpyridin-3-yl)oxy)phenyl)amino)-5,6-dihydropyrido[4′,3′:4,5]thieno[2,3-d]pyrimidin-7(8H)-yl)but-2-en-1-one]",IC50,EGFR WT,1000 to 10000 nM
same,EC50,EGFR,< 100 nM
same,Selectivity A431 EC50/BT474 EC50,EGFR,C (C: ≥ 10 and < 20)
same,Selectivity A431 EC50/HEKYVMA EC50,EGFR,C (C: ≥ 10 and < 20)
same,IC50,HER2YVMA,< 100 nM
"C=CC(=O)N1CCc2c(sc3ncnc(Nc4ccc(Oc5cccnc5)c(C)c4)c23)C1 [Compound 11, 1-(4-((3-methyl-4-(pyridin-3-yloxy)phenyl)amino)-5,8-dihydropyrido[4′,3′:4,5]thieno[2,3-d]pyrimidin-7(6H)-yl)prop-2-en-1-one]",IC50,EGFR WT,1000 to 10000 nM
same,EC50,EGFR,< 100 nM
same,Selectivity A431 EC50/BT474 EC50,EGFR,E (E: >1 and < 5)
same,Selectivity A431 EC50/HEKYVMA EC50,EGFR,E (E: >1 and < 5)
same,IC50,HER2YVMA,< 100 nM
Cc1cc(Nc2ncnc3sc4c(c23)CCN(C(=O)/C=C/CN2CCOCC2)C4)ccc1Oc1ccc2ncnn2c1 [Compound 12],IC50,EGFR WT,> 10000 nM
same,EC50,EGFR,1000 to 10000 nM
same,Selectivity A431 EC50/BT474 EC50,EGFR,A (A: ≥100)
same,Selectivity A431 EC50/HEKYVMA EC50,EGFR,B (B: ≥ 20 and < 100)
same,IC50,HER2YVMA,100 to 1000 nM
Cc1ccc(Oc2ccc(Nc3ncnc4sc5c(c34)CCN(C(=O)/C=C/CN3CC4CCC(C3)O4)C5)cc2C)cn1 [Compound 13],IC50,EGFR WT,> 10000 nM
same,EC50,EGFR,100 to 1000 nM
same,Selectivity A431 EC50/BT474 EC50,EGFR,C (C: ≥ 10 and < 20)
same,Selectivity A431 EC50/HEKYVMA EC50,EGFR,C (C: ≥ 10 and < 20)
same,IC50,HER2YVMA,100 to 1000 nM
Cc1ccc(Oc2ccc(Nc3ncnc4sc5c(c34)CCN(C(=O)/C=C/CN3CC4CCC3C4)C5)cc2C)cn1 (stereo not drawn) [Compound 14],IC50,EGFR WT,> 10000 nM
same,EC50,EGFR,< 100 nM
same,Selectivity A431 EC50/BT474 EC50,EGFR,D (D: ≥ 5 and < 10)
same,Selectivity A431 EC50/HEKYVMA EC50,EGFR,E (E: >1 and < 5)
same,IC50,HER2YVMA,< 100 nM
Cc1ccc(Oc2ccc(Nc3ncnc4sc5c(c34)CCN(C(=O)/C=C/CN3CC4CC(C3)O4)C5)cc2C)cn1 [Compound 15],IC50,EGFR WT,> 10000 nM
same,EC50,EGFR,100 to 1000 nM
same,Selectivity A431 EC50/BT474 EC50,EGFR,B (B: ≥ 20 and < 100)
same,Selectivity A431 EC50/HEKYVMA EC50,EGFR,B (B: ≥ 20 and < 100)
same,IC50,HER2YVMA,100 to 1000 nM
"Cc1ccc(Oc2ccc(Nc3ncnc4sc5c(c34)CCN(C(=O)/C=C/CN3CCOCC3)C5)cc2C)cn1 [Compound 17, (E)-1-(4-((3-Methyl-4-((6-methylpyridin-3-yl)oxy)phenyl)amino)-5,6-dihydropyrido[4′,3′:4,5]thieno[2,3-d]pyrimidin-7(8H)-yl)-4-morpholinobut-2-en-1-one]",IC50,EGFR WT,> 10000 nM
same,EC50,EGFR,100 to 1000 nM
same,Selectivity A431 EC50/BT474 EC50,EGFR,C (C: ≥ 10 and < 20)
same,Selectivity A431 EC50/HEKYVMA EC50,EGFR,A (A: ≥100)
same,IC50,HER2YVMA,< 100 nM
O=C(/C=C/CN1CCOCC1)N1CCc2c(sc3ncnc(Nc4ccc(Oc5ccc6ncnn6c5)c(Cl)c4)c23)C1 [Compound 18],IC50,EGFR WT,> 10000 nM
same,EC50,EGFR,100 to 1000 nM
same,Selectivity A431 EC50/BT474 EC50,EGFR,B (B: ≥ 20 and < 100)
same,Selectivity A431 EC50/HEKYVMA EC50,EGFR,B (B: ≥ 20 and < 100)
same,IC50,HER2YVMA,< 100 nM
"Cc1cc(Nc2ncnc3sc4c(c23)CCN(C(=O)/C=C/CN(C)C)C4)ccc1Oc1ccc2scnc2c1 [Compound 107, (E)-1-(4-((4-(benzo[d]thiazol-5-yloxy)-3-methylphenyl)amino)-5,8-dihydropyrido[4′,3′:4,5]thieno[2,3-d]pyrimidin-7(6H)-yl)-4-(dimethylamino)but-2-en-1-one]",IC50,EGFR WT,1000 to 10000 nM
same,EC50,EGFR,< 100 nM
same,Selectivity A431 EC50/BT474 EC50,EGFR,C (C: ≥ 10 and < 20)
same,Selectivity A431 EC50/HEKYVMA EC50,EGFR,A (A: ≥100)
same,IC50,HER2YVMA,< 100 nM
"Cc1ccc(Oc2ccc(Nc3ncnc4sc5c(c34)CN(C(=O)/C=C/CN(C)C)CC5)cc2C)cn1 [Compound 108, (E)-4-(Dimethylamino)-1-(4-((3-methyl-4-((6-methylpyridin-3-yl)oxy)phenyl)amino)-7,8-dihydropyrido[3′,4′:4,5]thieno[2,3-d]pyrimidin-6(5H)-yl)but-2-en-1-one]",IC50,EGFR WT,> 10000 nM
same,EC50,EGFR,< 100 nM
same,Selectivity A431 EC50/BT474 EC50,EGFR,C (C: ≥ 10 and < 20)
same,Selectivity A431 EC50/HEKYVMA EC50,EGFR,C (C: ≥ 10 and < 20)
same,IC50,HER2YVMA,< 100 nM
"Cc1cc(Nc2ncnc3sc4c(c23)CCN(C(=O)/C=C/CN(C)C)C4)ccc1Oc1ccc2nccn2c1 [Compound 109, (E)-4-(dimethylamino)-1-(4-((4-(imidazo[1,2-a]pyridin-6-yloxy)-3-methylphenyl)amino)-5,6-dihydropyrido[4′,3′:4,5]thieno[2,3-d]pyrimidin-7(8H)-yl)but-2-en-1-one]",IC50,EGFR WT,> 10000 nM
same,EC50,EGFR,100 to 1000 nM
same,Selectivity A431 EC50/BT474 EC50,EGFR,D (D: ≥ 5 and < 10)
same,Selectivity A431 EC50/HEKYVMA EC50,EGFR,E (E: >1 and < 5)
same,IC50,HER2YVMA,< 100 nM

# Source: patent publication US20240391931A1 (Bristol-Myers Squibb Company, priority 2021, published 2024)
